{
  "source": "PubChem BioAssay AID256",
  "about": "(DTP/NCI, 2004)",
  "test_system": "CD2F1 mice, L1210 leukemia ip, survival T/C",
  "test": "NCI In Vivo Anticancer Drug Screen. Data for tumor model L1210 Leukemia (intraperitoneal) in CD2F1 (CDF1) mice",
  "details": "higher = longer survival",
  "procedure,_shortened": "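Read-out first: treated-group measurement over vehicle-control measurement, expressed as a ratio. Animals bore a transplanted tumor line and were dosed with compound or vehicle.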",
  "key": {"[1]": {"details": "endpoint: mean survival time, dose: 100.0 mg/kg/injection, schedule: Q04DX003 (ip), vehicle: saline with Tween-80"}, "[2]": {"details": "endpoint: mean survival time, dose: 200.0 mg/kg/injection, schedule: Q04DX003 (ip), vehicle: saline with Tween-80"}, "[3]": {"details": "endpoint: mean survival time, dose: 400.0 mg/kg/injection, schedule: Q01DX009 (ip), vehicle: saline with Tween-80"}, "[4]": {"details": "endpoint: mean survival time, dose: 400.0 mg/kg/injection, schedule: Q04DX003 (ip), vehicle: saline with Tween-80"}, "[5]": {"details": "endpoint: mean survival time, dose: 100.0 mg/kg/injection, schedule: Q01DX001 (ip), vehicle: saline"}, "[6]": {"details": "endpoint: mean survival time, dose: 200.0 mg/kg/injection, schedule: Q01DX001 (ip), vehicle: saline"}},
  "note": "Several values for one entry are separate records, joined by “and”; a condition that tells them apart may be missing. Identical values can stand only once. Inconclusive results and toxic doses are left out.",
  "data": [
    {"molecule": "CC(C)(Cl)[N+](=O)[O-]", "values": [
      {"measurement": "T/C", "setting": "endpoint: mean survival time, dose: 100.0 mg/kg/injection, schedule: Q04DX003 (ip), vehicle: saline", "result": "98 % of control"},
      {"measurement": "T/C", "setting": "endpoint: mean survival time, dose: 200.0 mg/kg/injection, schedule: Q04DX003 (ip), vehicle: saline", "result": "104 % of control"},
      {"measurement": "T/C", "setting": "endpoint: mean survival time, dose: 400.0 mg/kg/injection, schedule: Q04DX003 (ip), vehicle: saline", "result": "96 % of control"}
    ]},
    {"molecule": "N#Cc1cc(N2CC2)c([N+](=O)[O-])cc1[N+](=O)[O-]", "values": [
      {"measurement": "T/C", "setting": "endpoint: mean survival time, dose: 100.0 mg/kg/injection, schedule: Q01DX001 (ip), vehicle: Klucel (hydroxypropylcellulose) (HPC)", "result": "102 % of control"},
      {"measurement": "T/C", "setting": "endpoint: mean survival time, dose: 200.0 mg/kg/injection, schedule: Q01DX001 (ip), vehicle: Klucel (hydroxypropylcellulose) (HPC)", "result": "103 % of control"},
      {"measurement": "T/C", "setting": "endpoint: mean survival time, dose: 400.0 mg/kg/injection, schedule: Q01DX001 (ip), vehicle: Klucel (hydroxypropylcellulose) (HPC)", "result": "103 % of control"}
    ]},
    {"molecule": "O=C1NC2(c3ccccc3)NC(=O)NC2(c2ccccc2)N1", "note": "(stereo not drawn)", "values": [
      {"measurement": "T/C", "setting": "endpoint: mean survival time, dose: 100.0 mg/kg/injection, schedule: Q01DX009 (ip), vehicle: saline with Tween-80", "result": "98 % of control"},
      {"measurement": "T/C", "setting": "[1]", "result": "101 % of control"},
      {"measurement": "T/C", "setting": "endpoint: mean survival time, dose: 200.0 mg/kg/injection, schedule: Q01DX009 (ip), vehicle: saline with Tween-80", "result": "98 % of control"},
      {"measurement": "T/C", "setting": "[2]", "result": "97 % of control"},
      {"measurement": "T/C", "setting": "[3]", "result": "104 % of control"},
      {"measurement": "T/C", "setting": "[4]", "result": "95 % of control"}
    ]},
    {"molecule": "O=C(NC1CCc2ccccc21)c1ccccc1", "note": "(stereo not drawn)", "values": [
      {"measurement": "T/C", "setting": "[1]", "result": "96 % of control"},
      {"measurement": "T/C", "setting": "[2]", "result": "94 % of control"},
      {"measurement": "T/C", "setting": "[3]", "result": "87 % of control"},
      {"measurement": "T/C", "setting": "[4]", "result": "97 % of control"}
    ]},
    {"molecule": "CCN(CC)C(=O)Nc1ccccc1Cl", "values": [
      {"measurement": "T/C", "setting": "endpoint: mean survival time, dose: 100.0 mg/kg/injection, schedule: Q04DX002 (ip), vehicle: saline with Tween-80", "result": "105 % of control"},
      {"measurement": "T/C", "setting": "endpoint: mean survival time, dose: 200.0 mg/kg/injection, schedule: Q04DX002 (ip), vehicle: saline with Tween-80", "result": "108 % of control"},
      {"measurement": "T/C", "setting": "endpoint: mean survival time, dose: 400.0 mg/kg/injection, schedule: Q04DX002 (ip), vehicle: saline with Tween-80", "result": "94 % of control"}
    ]},
    {"molecule": "CC(C)(O)C(Cl)(Cl)Cl", "values": [
      {"measurement": "T/C", "setting": "endpoint: mean survival time, dose: 50.0 mg/kg/injection, schedule: Q01DX009 (ip), vehicle: saline", "result": "97 % of control"},
      {"measurement": "T/C", "setting": "endpoint: mean survival time, dose: 100.0 mg/kg/injection, schedule: Q01DX009 (ip), vehicle: saline", "result": "95 % of control"},
      {"measurement": "T/C", "setting": "endpoint: mean survival time, dose: 200.0 mg/kg/injection, schedule: Q01DX009 (ip), vehicle: saline", "result": "107 % of control"}
    ]},
    {"molecule": "NC1(C(=O)O)CCCC1.[Pd]", "values": [
      {"measurement": "T/C", "setting": "[5]", "result": "100 % of control"},
      {"measurement": "T/C", "setting": "[6]", "result": "96 % of control"}
    ]},
    {"molecule": "O=C(O)CSc1cc(Cl)ccc1Cl", "values": [
      {"measurement": "T/C", "setting": "endpoint: mean survival time, dose: 12.5 mg/kg/injection, schedule: Q04DX003 (ip), vehicle: Klucel (hydroxypropylcellulose) (HPC)", "result": "95 % of control"},
      {"measurement": "T/C", "setting": "endpoint: mean survival time, dose: 25.0 mg/kg/injection, schedule: Q04DX003 (ip), vehicle: Klucel (hydroxypropylcellulose) (HPC)", "result": "98 % of control"},
      {"measurement": "T/C", "setting": "endpoint: mean survival time, dose: 50.0 mg/kg/injection, schedule: Q04DX003 (ip), vehicle: Klucel (hydroxypropylcellulose) (HPC)", "result": "100 % of control"},
      {"measurement": "T/C", "setting": "endpoint: mean survival time, dose: 100.0 mg/kg/injection, schedule: Q04DX003 (ip), vehicle: Klucel (hydroxypropylcellulose) (HPC)", "result": "100 % of control"}
    ]},
    {"molecule": "CC(C)CCC(C)C1CCC2C3CCC4CC(=O)CC4(C)C3CCC12C", "note": "(stereo not drawn)", "values": [
      {"measurement": "T/C", "setting": "[1]", "result": "100 % of control"},
      {"measurement": "T/C", "setting": "[2]", "result": "94 % of control"},
      {"measurement": "T/C", "setting": "[4]", "result": "97 % of control"}
    ]},
    {"molecule": "CC(=O)Nc1ccc(C(=O)C=P(c2ccccc2)(c2ccccc2)c2ccccc2)cc1", "values": [
      {"measurement": "T/C", "setting": "[5]", "result": "101 % of control"},
      {"measurement": "T/C", "setting": "[6]", "result": "97 % of control"},
      {"measurement": "T/C", "setting": "endpoint: mean survival time, dose: 400.0 mg/kg/injection, schedule: Q01DX001 (ip), vehicle: saline", "result": "97 % of control"}
    ]},
    {"molecule": "CNCCN=c1ccc2c3c1c(O)c1c(O)ccc(=O)c1c3[nH]n2CCNCCO", "values": [
      {"measurement": "T/C", "setting": "endpoint: median survival time, dose: 0.37 mg/kg/injection, schedule: Q01DX009 (ip), vehicle: water", "result": "152 % of control and 207 % of control"},
      {"measurement": "T/C", "setting": "endpoint: median survival time, dose: 0.75 mg/kg/injection, schedule: Q01DX009 (ip), vehicle: water", "result": "182 % of control and 195 % of control"},
      {"measurement": "T/C", "setting": "endpoint: median survival time, dose: 1.5 mg/kg/injection, schedule: Q01DX009 (ip), vehicle: water", "result": "154 % of control and 195 % of control"},
      {"measurement": "T/C", "setting": "endpoint: median survival time, dose: 3.0 mg/kg/injection, schedule: Q01DX009 (ip), vehicle: water", "result": "264 % of control and 280 % of control"},
      {"measurement": "T/C", "setting": "endpoint: median survival time, dose: 3.12 mg/kg/injection, schedule: Q01DX009 (ip), vehicle: water", "result": "337 % of control"},
      {"measurement": "T/C", "setting": "endpoint: median survival time, dose: 6.0 mg/kg/injection, schedule: Q01DX009 (ip), vehicle: water", "result": "120 % of control and 103 % of control"},
      {"measurement": "T/C", "setting": "endpoint: median survival time, dose: 6.25 mg/kg/injection, schedule: Q01DX009 (ip), vehicle: water", "result": "120 % of control"}
    ]},
    {"molecule": "COC1C(C)OC(OC2CC(C)(O)C(C(=O)O)c3cc4c(c(O)c32)C(=O)c2c(O)cc3c(c2C4=O)OC2OC3(C)C(O)C(N(C)C)C2O)C(OC)C1(C)OC", "note": "(stereo not drawn)", "values": [
      {"measurement": "T/C", "setting": "endpoint: mean survival time, dose: 5.0 mg/kg/injection, schedule: Q01DX009 (ip), vehicle: other", "result": "113 % of control"},
      {"measurement": "T/C", "setting": "endpoint: mean survival time, dose: 10.0 mg/kg/injection, schedule: Q01DX009 (ip), vehicle: other", "result": "107 % of control"},
      {"measurement": "T/C", "setting": "endpoint: mean survival time, dose: 10.0 mg/kg/injection, schedule: Q04DX003 (ip), vehicle: other", "result": "113 % of control"},
      {"measurement": "T/C", "setting": "endpoint: mean survival time, dose: 20.0 mg/kg/injection, schedule: Q01DX009 (ip), vehicle: other", "result": "118 % of control"},
      {"measurement": "T/C", "setting": "endpoint: mean survival time, dose: 20.0 mg/kg/injection, schedule: Q04DX003 (ip), vehicle: other", "result": "113 % of control"},
      {"measurement": "T/C", "setting": "endpoint: mean survival time, dose: 40.0 mg/kg/injection, schedule: Q04DX003 (ip), vehicle: other", "result": "117 % of control"},
      {"measurement": "T/C", "setting": "endpoint: mean survival time, dose: 80.0 mg/kg/injection, schedule: Q04DX003 (ip), vehicle: other", "result": "115 % of control"}
    ]}
  ]
}
